From US20140249135A1, “PIM KINASE INHIBITORS AND METHODS OF THEIR USE” (NOVARTIS AG, priority 2007, published 2014)

Experiments:
Type in all cases: biochemical
Pim1 kinase = Pim1 kinase (Homo sapiens, UniProt P11309); experiment: Pim1 ATP depletion assay; conditions: Pim1 ATP depletion assay; read-out: PIM1 IC50;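 also: Luciferase-luciferin luminescence readout of residual ATP after PIM1 transfers phosphate to a peptide substrate, 40 µM ATP added, reaction run to roughly half ATP consumption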
Pim2 kinase = Pim2 kinase (Homo sapiens, UniProt Q9P1W9); experiment: Pim2 ATP depletion assay; conditions: read-out: PIM2 IC50;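 also: Luciferase-based luminescent readout of ATP remaining after PIM2 phosphorylates a BAD peptide, final 5 nM enzyme, 4 µM ATP, 10 µM peptide, 2.5% DMSO, run to roughly half ATP consumption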
Sequence of Pim2 kinase (Q9P1W9 whole entry): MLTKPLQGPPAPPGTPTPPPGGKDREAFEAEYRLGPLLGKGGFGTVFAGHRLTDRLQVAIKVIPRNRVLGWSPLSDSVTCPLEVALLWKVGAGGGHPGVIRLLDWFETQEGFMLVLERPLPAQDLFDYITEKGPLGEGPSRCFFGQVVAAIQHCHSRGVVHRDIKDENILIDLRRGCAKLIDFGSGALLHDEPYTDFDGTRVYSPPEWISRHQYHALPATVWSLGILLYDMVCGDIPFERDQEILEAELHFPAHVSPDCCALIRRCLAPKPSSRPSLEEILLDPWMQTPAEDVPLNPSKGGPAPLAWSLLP

Pim3 kinase = Pim3 kinase (Homo sapiens, UniProt Q86V86); experiment: Pim3 ATP depletion assay; conditions: read-out: PIM3 IC50

Sequence of Pim1 kinase (P11309 whole entry): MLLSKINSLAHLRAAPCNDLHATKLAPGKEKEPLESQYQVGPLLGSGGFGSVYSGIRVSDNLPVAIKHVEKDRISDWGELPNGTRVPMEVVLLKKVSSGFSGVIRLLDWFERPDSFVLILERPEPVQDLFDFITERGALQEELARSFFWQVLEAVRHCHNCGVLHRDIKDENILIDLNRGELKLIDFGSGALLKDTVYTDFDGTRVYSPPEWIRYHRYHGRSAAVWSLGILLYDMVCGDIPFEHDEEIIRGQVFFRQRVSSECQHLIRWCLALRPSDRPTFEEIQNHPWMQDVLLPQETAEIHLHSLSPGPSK

Structure (SMILES)	IC50 (Pim1 kinase)	IC50 (Pim2 kinase)	IC50 (Pim3 kinase)
Cc1csc(-c2ccc(N)c(C(=O)Nc3cnccc3-c3cc(N)nc(C)n3)n2)c1 [Example 556, 3-Amino-6-(4-methyl-thiophen-2-yl)-pyridine-2-carboxylic acid [4-(6-amino-2-methyl-pyrimidin-4-yl)-pyridin-3-yl]-amide]	< 1000 nM	< 1000 nM	< 1000 nM
Cc1nc(N)cc(-c2ccncc2NC(=O)c2nc(-c3ccc(C(F)(F)F)cc3F)ccc2N)n1 [Example 557, 3-Amino-6-(2-fluoro-4-trifluoromethyl-phenyl)-pyridine-2-carboxylic acid [4-(6-amino-2-methyl-pyrimidin-4-yl)-pyridin-3-yl]-amide]	< 1000 nM	< 1000 nM	< 1000 nM
Cc1ccc(-c2ccc(N)c(C(=O)Nc3cnccc3-c3cc(N)nc(C)n3)n2)c(F)c1 [Example 558, 3-Amino-6-(2-fluoro-4-methyl-phenyl)-pyridine-2-carboxylic acid [4-(6-amino-2-methyl-pyrimidin-4-yl)-pyridin-3-yl]-amide]	< 1000 nM	< 1000 nM	< 1000 nM
Cc1nc(N)cc(-c2ccncc2NC(=O)c2nc(-c3ccccc3)ccc2N)n1 [Example 559, 3-Amino-6-phenyl-pyridine-2-carboxylic acid [4-(6-amino-2-methyl-pyrimidin-4-yl)-pyridin-3-yl]-amide]	< 1000 nM	< 1000 nM	< 1000 nM
Cc1cc(-c2ccncc2NC(=O)c2nc(-c3cc(C(=O)NC(C)C)ccc3F)c(F)cc2N)nc(N)n1 [Example 560, 3-Amino-5-fluoro-6-(2-fluoro-5-isopropylcarbamoyl-phenyl)-pyridine-2-carboxylic acid [4-(2-amino-6-methyl-pyrimidin-4-yl)-pyridin-3-yl]-amide]	< 1000 nM	< 1000 nM	< 1000 nM
Cc1nc(N)cc(-c2ccncc2NC(=O)c2nc(-c3cc(C(=O)N(C)C)ccc3F)c(F)cc2N)n1 [Example 561, 3-Amino-6-(5-dimethylcarbamoyl-2-fluoro-phenyl)-5-fluoro-pyridine-2-carboxylic acid [4-(6-amino-2-methyl-pyrimidin-4-yl)-pyridin-3-yl]-amide]	< 1000 nM	< 1000 nM	< 1000 nM
CCCOc1ccc(F)c(-c2ccc(N)c(C(=O)Nc3cnccc3-c3cc(C)nc(N)n3)n2)c1F [Example 562, 3-Amino-6-(2,6-difluoro-3-propoxy-phenyl)-pyridine-2-carboxylic acid [4-(2-amino-6-methyl-pyrimidin-4-yl)-pyridin-3-yl]-amide]	< 1000 nM	< 1000 nM	< 1000 nM
Cc1cc(-c2ccncc2NC(=O)c2nc(-c3cc(C(=O)NC(C)C)ccc3F)ccc2N)nc(N)n1 [Example 563, 3-Amino-6-(2-fluoro-5-isopropylcarbamoyl-phenyl)-pyridine-2-carboxylic acid [4-(2-amino-6-methyl-pyrimidin-4-yl)-pyridin-3-yl]-amide]	< 1000 nM	< 1000 nM	< 1000 nM
Cc1cc(-c2ccncc2NC(=O)c2nc(-c3cc(C(=O)N(C)C)ccc3F)ccc2N)nc(N)n1 [Example 564, 3-Amino-6-(5-dimethylcarbamoyl-2-fluoro-phenyl)-pyridine-2-carboxylic acid [4-(2-amino-6-methyl-pyrimidin-4-yl)-pyridin-3-yl]-amide]	< 1000 nM	< 1000 nM	< 1000 nM
CCCNC(=O)c1ccc(F)c(-c2ccc(N)c(C(=O)Nc3cnccc3-c3cc(N)nc(C)n3)n2)c1 [Example 565, 3-Amino-6-(2-fluoro-5-propylcarbamoyl-phenyl)-pyridine-2-carboxylic acid [4-(6-amino-2-methyl-pyrimidin-4-yl)-pyridin-3-yl]-amide]	< 1000 nM	< 1000 nM	< 1000 nM
Nc1ccc(-c2cccc(CN3CCOCC3)c2)nc1C(=O)Nc1cnccc1N1CCC[C@H](N)C1 [Example 566, 3-Amino-6-(3-morpholin-4-ylmethyl-phenyl)-pyridine-2-carboxylic acid (3-amino-3,4,5,6-tetrahydro-2H-[1,4′]bipyridinyl-3′-yl)-amide]	< 1000 nM	< 1000 nM	< 1000 nM
Nc1ccc(-c2ccc(CN3CCOCC3)cc2)nc1C(=O)Nc1cnccc1N1CCC[C@H](N)C1 [Example 567, 3-Amino-6-(4-morpholin-4-ylmethyl-phenyl)-pyridine-2-carboxylic acid (3-amino-3,4,5,6-tetrahydro-2H-[1,4′]bipyridinyl-3′-yl)-amide]	< 1000 nM	< 1000 nM	< 1000 nM
N[C@H]1CCCN(c2ccncc2NC(=O)c2nc(-c3ccccc3)ccc2F)C1 [Example 568, 3-Fluoro-6-phenyl-pyridine-2-carboxylic acid (3-amino-3,4,5,6-tetrahydro-2H-[1,4′]bipyridinyl-3′-yl)-amide]	< 1000 nM	< 1000 nM	< 1000 nM
CC(C)NC(=O)c1ccc(F)c(-c2ccc(F)c(C(=O)Nc3cnccc3N3CCC[C@H](N)C3)n2)c1 [Example 569, 3-Fluoro-6-(2-fluoro-5-isopropylcarbamoyl-phenyl)-pyridine-2-carboxylic acid (3-amino-3,4,5,6-tetrahydro-2H-[1,4′]bipyridinyl-3′-yl)-amide]	< 1000 nM	< 1000 nM	< 1000 nM
N[C@H]1CCCN(c2ccncc2NC(=O)c2nc(-c3ccccc3F)ccc2F)C1 [Example 571, 3-Fluoro-6-(2-fluoro-phenyl)-pyridine-2-carboxylic acid (3-amino-3,4,5,6-tetrahydro-2H-[1,4′]bipyridinyl-3′-yl)-amide]	< 1000 nM	< 1000 nM	< 1000 nM
Nc1cc(-c2ccncc2NC(=O)c2nc(-c3ccc(CN4CCOCC4)cc3)ccc2N)nc(C(F)(F)F)n1 [Example 572, 3-Amino-6-(4-morpholin-4-ylmethyl-phenyl)-pyridine-2-carboxylic acid [4-(6-amino-2-trifluoromethyl-pyrimidin-4-yl)-pyridin-3-yl]-amide]	< 1000 nM	< 1000 nM	< 1000 nM
CN1CCN(c2cc(-c3ccc(N)c(C(=O)Nc4cnccc4-c4cc(N)nc(C(F)(F)F)n4)n3)ccn2)CC1 [Example 573, 5-Amino-2′-(4-methyl-piperazin-1-yl)-[2,4′]bipyridinyl-6-carboxylic acid [4-(6-amino-2-trifluoromethyl-pyrimidin-4-yl)-pyridin-3-yl]-amide]	< 1000 nM	< 1000 nM	< 1000 nM
CN1CCN(c2ccc(-c3ccc(N)c(C(=O)Nc4cnccc4-c4cc(N)nc(C(F)(F)F)n4)n3)cc2)CC1 [Example 574, 3-Amino-6-[4-(4-methyl-piperazin-1-yl)-phenyl]-pyridine-2-carboxylic acid [4-(6-amino-2-trifluoromethyl-pyrimidin-4-yl)-pyridin-3-yl]-amide]	< 1000 nM	< 1000 nM	< 1000 nM
NC1CC(CO)CN(c2ccncc2NC(=O)c2nc(-c3c(F)cccc3F)ccc2F)C1 (stereo not drawn) [Example 575, 6-(2,6-Difluoro-phenyl)-3-fluoro-pyridine-2-carboxylic acid (5-amino-3-hydroxymethyl-3,4,5,6-tetrahydro-2H-[1,4′]bipyridinyl-3′-yl)-amide]	< 1000 nM	< 1000 nM	1000 to 10000 nM
Nc1ccc(-c2c(F)cccc2F)nc1C(=O)Nc1cnccc1N1CC(N)CC(CO)C1 (stereo not drawn) [Example 576, 3-Amino-6-(2,6-difluoro-phenyl)-pyridine-2-carboxylic acid (5-amino-3-hydroxymethyl-3,4,5,6-tetrahydro-2H-[1,4′]bipyridinyl-3′-yl)-amide]	< 1000 nM	< 1000 nM	< 1000 nM
Nc1ccc(-c2ccccc2)nc1C(=O)Nc1cnccc1N1C[C@@H](N)C[C@@H](F)C1 [Example 578, 3-Amino-6-phenyl-pyridine-2-carboxylic acid (3-amino-5-fluoro-3,4,5,6-tetrahydro-2H-[1,4′]bipyridinyl-3′-yl)-amide]	< 1000 nM	< 1000 nM	< 1000 nM
CCCOc1ccc(F)c(-c2ccc(N)c(C(=O)Nc3cnccc3N3C[C@@H](N)C[C@H](O)C3)n2)c1 [Example 581, 3-Amino-6-(2-fluoro-5-propoxy-phenyl)-pyridine-2-carboxylic acid (3-amino-5-hydroxy-3,4,5,6-tetrahydro-2H-[1,4′]bipyridinyl-3′-yl)-amide]	< 1000 nM	< 1000 nM	< 1000 nM
Nc1ccc(-c2ccccc2)nc1C(=O)Nc1cnccc1N1C[C@@H](N)C[C@H](O)C1 [Example 582, 3-Amino-6-phenyl-pyridine-2-carboxylic acid (3-amino-5-hydroxy-3,4,5,6-tetrahydro-2H-[1,4′]bipyridinyl-3′-yl)-amide]	< 1000 nM	1000 to 10000 nM	< 1000 nM
COc1ncccc1-c1ccc(N)c(C(=O)Nc2cnccc2-c2ccccc2C)n1 [Example 584, 5-amino-2′-methoxy-[2,3′]bi-pyridinyl-6-carboxylic acid (4-o-tolyl-pyridin-3-yl)-amide]	< 1000 nM	1000 to 10000 nM	< 1000 nM
Cc1ccccc1-c1ccncc1NC(=O)c1nc(-c2c(F)cccc2F)ccc1N [Example 585, 3-amino-6-(2,6-difluoro-phenyl)-pyridine-2-carboxylic acid (4-o-tolyl-pyridin-3-yl)-amide]	< 1000 nM	< 1000 nM	< 1000 nM
Cc1ccccc1-c1ccncc1NC(=O)c1nc(-c2ccccc2F)ccc1N [Example 586, 3-amino-6-(2-fluoro-phenyl)-pyridine-2-carboxylic acid (4-o-tolyl-pyridin-3-yl)-amide]	< 1000 nM	1000 to 10000 nM	< 1000 nM
Nc1ccc(-c2c(F)cccc2F)nc1C(=O)Nc1cnccc1N1CCCCC1 [Example 588, 3-amino-6-(2,6-difluoro-phenyl)-pyridine-2-carboxylic acid (3,4,5,6-tetrahydro-2H-[1,4′]bipyridinyl-3′-yl)-amide]	< 1000 nM	< 1000 nM	< 1000 nM
